Key:
[1] = tested on: RAW 264.7 macrophages; experiment: Pro-inflammatory cytokine ELISA in LPS-activated macrophages; assay type: cell-based, murine; conditions: LPS 1 μg/ml 24 h, culture medium
Protocol: (§1) ROS production was measured as the relative fluorescence intensity. […] The data are expressed as the mean±SD for three separate experiments. *p<0.05, **p<0.01 compared to the LPS-treated group. RAW-Blue™ cells (Murine macrophages RAW264.7 stably transfected with the NF-κB reporter gene) purchased from InvivoGen (San Diego, Calif.). LPS (from Escherichia coli 0111:B4) and mouse antibodies against phospho-ERK1/2, phospho-JNK1/2, and phospho-p38 (all from Sigma, St. Louis, Mo.). Rabbit antibodies against mouse ERK1, JNK1, and p38, and HRP-labeled second antibodies were purchased from Santa Cruz Biotechnology, and IL-1β, IL-6, and TNF-α ELISA kits from R&D Systems. ROS production assay, NO production assay, NF-κB reporter assay, ELISA, and Western blotting were performed as described previously.

[2] = tested on: CD3+ T cells, F4/80+ macrophages; experiment: Mouse FSGS model: renal infiltration of T cells and macrophages (immunohistochemistry); assay type: in vivo; conditions: days 14 and 28
Protocol: A progressive type of mouse FSGS model was used, particularly characterized by EPHLs, a key histopathology index of progression of FSGS, peri-glomerular inflammation, and progressive glomerular hyalinosis/sclerosis. The FSGS model was induced in 8-week-old male BALB/c mice (National Laboratory Animal Center, Taipei, Taiwan) by intravenous injection of a single dose of adriamycin (0.10 mg/10 g body weight) (Pfizer, New York, N.Y.) as described previously. […] Age- and sex-matched BALB/c mice were used as normal controls. Urine samples were collected in metabolic cages on days 3, 7, 14, 21, and 28. […] The concentration of urine protein was determined using BCA kits (Pierce, Rockford, Ill.) as described previously and normalized to urine creatinine (Cr) levels measured using kits (Wako Pure Chemical Industries, Osaka, Japan), as described previously. Serum levels of blood urea nitrogen (BUN) and Cr were determined using BUN kits and Cr kits (both from Fuji Dry-Chem Slide, Fuji Film Medical, Tokyo, Japan), as described previously.
Renal tissues were formalin-fixed, embedded in paraffin, and sections (4 μm) prepared and stained with hematoxylin and eosin (H&E) for renal histopathology as described previously or TUNEL stained for apoptosis as described previously. Renal pathology was examined and renal lesions scored as described previously. […]

[3] = tested on: renal apoptosis; caspase-3, caspase-8, caspase-9, Bax/Bcl-2; experiment: Mouse FSGS model: renal apoptosis (TUNEL), caspases, Bax/Bcl-2 ratio; assay type: in vivo
Protocol: A progressive type of mouse FSGS model was used, particularly characterized by EPHLs, a key histopathology index of progression of FSGS, peri-glomerular inflammation, and progressive glomerular hyalinosis/sclerosis. The FSGS model was induced in 8-week-old male BALB/c mice (National Laboratory Animal Center, Taipei, Taiwan) by intravenous injection of a single dose of adriamycin (0.10 mg/10 g body weight) (Pfizer, New York, N.Y.) as described previously. […] Age- and sex-matched BALB/c mice were used as normal controls. Urine samples were collected in metabolic cages on days 3, 7, 14, 21, and 28. Renal cortical tissues and blood samples were collected when the mice were sacrificed and stored appropriately for further analysis. The concentration of urine protein was determined using BCA kits (Pierce, Rockford, Ill.) as described previously and normalized to urine creatinine (Cr) levels measured using kits (Wako Pure Chemical Industries, Osaka, Japan), as described previously. Serum levels of blood urea nitrogen (BUN) and Cr were determined using BUN kits and Cr kits (both from Fuji Dry-Chem Slide, Fuji Film Medical, Tokyo, Japan), as described previously.
Renal tissues were formalin-fixed, embedded in paraffin, and sections (4 μm) prepared and stained with hematoxylin and eosin (H&E) for renal histopathology as described previously or TUNEL stained for apoptosis as described previously. Renal pathology was examined and renal lesions scored as described previously. For EPHLs and sclerosis, at least 50 glomeruli in sections were examined for each mouse. To detect apoptosis in renal tissues, TUNEL staining was performed using an in situ apoptosis detection kit (Chemicon, Temecula, Calif.) according to the manufacturer's instructions. For immunohistochemistry, methyl Carnoy solution-fixed and paraffin-embedded renal sections were prepared and incubated with goat antibodies against mouse collagen IV (Col-IV) (Southern Biotech, AL) or rabbit antibodies against phosphorylated mouse NF-κB p65 (Cell Signaling Technology, MA), F4/80 (Serotec, Raleigh, N.C.), or CD3 (Serotec), then with horseradish-conjugated rabbit anti-goat IgG antibodies or swine anti-rabbit IgG antibodies (both from Dako, Carpinteria, Calif.). Quantitative image analysis software (Pax-it; Paxcam, VIIIa Park, Ill.) was used to score Col-IV staining and the number of phosphorylated NF-κB p65-, CD3-, F4/80-, or TUNEL-positive cells as described previously.
Cytoplasmic and nuclear proteins from renal tissues were prepared using a kit (Active Motif, Tokyo, Japan) according to the manufacturer's instructions and target proteins detected by immunoblotting using goat antibodies against mouse Nrf2 or p47^phox, (Santa Cruz Biotechnology, Santa Cruz, Calif.) or rabbit antibodies against mouse NQO1 (Abcam), caspase-3, caspase-8, or caspase-9 (all from Cell Signaling Technology, MA) or Bcl2 or Bax (both from Santa Cruz Biotechnology), then with horseradish-conjugated rabbit anti-goat IgG antibodies or goat-anti-rabbit IgG antibodies (both from Santa Cruz Biotechnology) as described previously. Anti-β-actin antibody (Santa Cruz Biotechnology) was used as internal controls for the nuclear and cytosolic target proteins, respectively. Renal HO-1 levels were measured using a commercial ELISA kit (R&D Systems, Minneapolis, Minn.) according to the manufacturer's instructions.

[4] = tested on: RAW 264.7 macrophages; experiment: NO production assay (Griess reaction) in LPS-activated macrophages; assay type: cell-based, murine; conditions: 30 min preincubation, then 24 h LPS 1 μg/ml; p<0.05
Protocol: as §1

[5] = tested on: p47phox, Nrf2, NQO1, HO-1; experiment: Mouse FSGS model: renal p47phox, nuclear Nrf2, NQO1 (Western blot) and HO-1 (ELISA); assay type: in vivo
Protocol: A progressive type of mouse FSGS model was used, particularly characterized by EPHLs, a key histopathology index of progression of FSGS, peri-glomerular inflammation, and progressive glomerular hyalinosis/sclerosis. The FSGS model was induced in 8-week-old male BALB/c mice (National Laboratory Animal Center, Taipei, Taiwan) by intravenous injection of a single dose of adriamycin (0.10 mg/10 g body weight) (Pfizer, New York, N.Y.) as described previously. […] Age- and sex-matched BALB/c mice were used as normal controls. Urine samples were collected in metabolic cages on days 3, 7, 14, 21, and 28. Renal cortical tissues and blood samples were collected when the mice were sacrificed and stored appropriately for further analysis. The concentration of urine protein was determined using BCA kits (Pierce, Rockford, Ill.) as described previously and normalized to urine creatinine (Cr) levels measured using kits (Wako Pure Chemical Industries, Osaka, Japan), as described previously. Serum levels of blood urea nitrogen (BUN) and Cr were determined using BUN kits and Cr kits (both from Fuji Dry-Chem Slide, Fuji Film Medical, Tokyo, Japan), as described previously. Cytoplasmic and nuclear proteins from renal tissues were prepared using a kit (Active Motif, Tokyo, Japan) according to the manufacturer's instructions and target proteins detected by immunoblotting using goat antibodies against mouse Nrf2 or p47^phox, (Santa Cruz Biotechnology, Santa Cruz, Calif.) or rabbit antibodies against mouse NQO1 (Abcam), caspase-3, caspase-8, or caspase-9 (all from Cell Signaling Technology, MA) or Bcl2 or Bax (both from Santa Cruz Biotechnology), then with horseradish-conjugated rabbit anti-goat IgG antibodies or goat-anti-rabbit IgG antibodies (both from Santa Cruz Biotechnology) as described previously. Anti-β-actin antibody (Santa Cruz Biotechnology) was used as internal controls for the nuclear and cytosolic target proteins, respectively. Renal HO-1 levels were measured using a commercial ELISA kit (R&D Systems, Minneapolis, Minn.) according to the manufacturer's instructions.

CC(C)=CCCC(C)=CC=O (racemic) [Citral, 3,7-dimethyl-2,6-octadienal]
secretion level of IL-1β [1]: inhibited
secretion level of IL-6 [1]: inhibited
secretion level of TNF-α [1]: inhibited
peri-glomerular infiltration of macrophages (F4/80+) ([2]; p<0.005): significantly decreased
renal peri-glomerular infiltration of T cells (CD3+) ([2]; p<0.05): markedly inhibited
mature form (p18 fragment) of renal caspase-8 ([3]; FSGS+vehicle vs FSGS+Citral vs normal control mice, data not shown): no detectable difference
renal apoptosis (TUNEL) in the glomerulus ([3]; day 28, p<0.005): significantly inhibited
renal apoptosis (TUNEL) in the renal tubule ([3]; days 14 and 28): significantly inhibited
mature form (p17 fragment) of caspase-3, renal levels ([3]; days 14 and 28, p<0.01): significantly inhibited
mature form (p37 fragment) of caspase-9, renal levels ([3]; days 14 and 28, p<0.05): suppressed
LPS-induced increase in NO generation [4]: inhibited
decrease of nuclear Nrf2 expression ([5]; day 14, kidney): inhibited at day 14 in FSGS+Citral mice, although not statistically significant
increase of renal p47phox protein levels ([5]; day 28, cytosolic, p<0.01): inhibited
cytosolic levels of NQO1 ([5]; day 28, relative to normal control mice, p<0.01): significantly higher
nuclear Nrf2 levels ([5]; day 28, vs FSGS+vehicle (p<0.005) and normal control mice (p<0.05)): greatly increased
renal HO-1 levels ([5]; days 14 and 28, vs FSGS+vehicle mice, p<0.05 or p<0.01): significantly elevated

— US8993637B2 (priority 2013, dated 2015)
